# Data from PubChem BioAssay (NCI).
# Several values for one entry are separate records, joined by “and”; a condition that tells them apart may be missing. Identical values can stand only once.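 Briefly, cells in 96-well plates were exposed to five compound concentrations for 48 h, and endpoints were estimated by linear interpolation. Abbreviation: GI50, concentration required for 50% inhibition of growth. TGI marks complete inhibition of growth.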
# Experiments:
# Assay in all cases: growth of human tumour cells (NCI), 48 h
# SK-MEL-2 melanoma = system: SK-MEL-2 melanoma
# HCC-2998 colon = system: HCC-2998 colon
# UACC-62 melanoma = system: UACC-62 melanoma
# RXF 393 renal = system: RXF 393 renal
# A549 NSCLC = system: A549 NSCLC
# SNB-75 CNS = system: SNB-75 CNS
# SK-MEL-28 melanoma = system: SK-MEL-28 melanoma
# NCI/ADR-RES ovarian = system: NCI/ADR-RES ovarian
# CAKI-1 renal = system: CAKI-1 renal
# SF-295 CNS = system: SF-295 CNS
Structure (SMILES),GI50 (SK-MEL-2 melanoma),TGI (SK-MEL-2 melanoma),GI50 (HCC-2998 colon),TGI (HCC-2998 colon),GI50 (UACC-62 melanoma),TGI (UACC-62 melanoma),GI50 (RXF 393 renal),TGI (RXF 393 renal),GI50 (A549 NSCLC),TGI (A549 NSCLC),GI50 (SNB-75 CNS),TGI (SNB-75 CNS),GI50 (SK-MEL-28 melanoma),TGI (SK-MEL-28 melanoma),GI50 (NCI/ADR-RES ovarian),TGI (NCI/ADR-RES ovarian),GI50 (CAKI-1 renal),TGI (CAKI-1 renal),GI50 (SF-295 CNS),TGI (SF-295 CNS)
CC12CC=CCC1CCC1C2CCC2(C)C(c3ccc(=O)oc3)CCC12O (stereo not given),0.24 µM,0.741 µM,0.374 µM,3.37 µM,0.233 µM,0.661 µM,0.0174 µM,0.0501 µM,0.032 µM,0.119 µM,0.0604 µM,0.302 µM,0.3 µM,1.37 µM,0.0485 µM,0.276 µM,0.135 µM,0.448 µM,0.0462 µM,0.25 µM
Cn1cc(C2=C(c3cn(C)c4cc(N)ccc34)C(=O)NC2=O)c2ccccc21,4.26 µM,10.6 µM,1.5 µM,> 25 µM,3.44 µM,8.39 µM,1.84 µM,7.59 µM,3.09 µM,> 25 µM,0.252 µM,2.09 µM,4.71 µM,18.4 µM,4.58 µM,24.2 µM,1.39 µM,> 15 µM,0.909 µM,> 25 µM
CC(=O)c1cc(-c2ccccc2N)n(-c2ccc3c(c2)OCO3)c1C,0.31 µM,–,0.304 µM,16.3 µM,0.227 µM,23 µM,0.208 µM,0.681 µM,0.313 µM,> 100 µM,0.255 µM,> 93.9 µM,2.34 µM,> 73.9 µM,0.211 µM,–,0.406 µM,83.7 µM,0.295 µM,45.7 µM
Cc1nn(CNc2ccccc2C(F)(F)F)c(=S)n1/N=C/c1ccc(F)cc1,> 100 µM,> 100 µM,> 100 µM,> 100 µM,35.4 µM,> 100 µM,> 100 µM,> 100 µM,> 100 µM,> 100 µM,29.5 µM,91.3 µM,50 µM,> 100 µM,> 100 µM,> 100 µM,> 100 µM,> 100 µM,> 100 µM,> 100 µM
CC[C@@]12C=CCN3CC[C@]4(c5cc(NC(=O)COc6cc(OCC(=O)Nc7cc8c(cc7OC)N(C)[C@H]7[C@@](O)(C(=O)OC)[C@H](OC(C)=O)[C@]9(CC)C=CCN%10CC[C@]87[C@@H]%109)cc7oc(-c8ccccc8)cc(=O)c67)c(OC)cc5N(C)[C@@H]4[C@](O)(C(=O)OC)[C@H]1OC(C)=O)[C@H]32,43.5 µM,> 100 µM,1.89 µM,3.99 µM,20.1 µM,64.6 µM,1.58 µM,3.28 µM,7.14 µM,> 100 µM,3.41 µM,> 100 µM,> 100 µM,> 100 µM,> 100 µM,> 100 µM,4.52 µM,> 100 µM,3.05 µM,11.9 µM
Clc1ccc2c(c1)C(N1CCNCC1)=Nc1ccccc1O2,1.77 µM,3.4 µM,1.58 µM,2.92 µM,1.63 µM,3.1 µM,1.22 µM,2.77 µM,4.5 µM,16.9 µM,1.13 µM,2.79 µM,1.61 µM,2.96 µM,1.99 µM,5.12 µM,2.2 µM,7.83 µM,1.92 µM,3.82 µM
CC(C)(C)n1cc(-c2ccnc(NCCCNS(=O)(=O)c3ccc(Br)cc3)c2)c(-c2cccc(O)c2)n1,2.13 µM,4.31 µM,1.92 µM,3.48 µM,1.59 µM,3.06 µM,1.46 µM,2.87 µM,2.11 µM,5.39 µM,1.76 µM,4.11 µM,1.79 µM,3.36 µM,2.21 µM,5.03 µM,2.16 µM,5.06 µM,1.71 µM,3.25 µM
Cc1cc(=O)oc2cc(OC(=O)N(CCCl)CCCl)ccc12,–,> 100 µM,–,> 100 µM,–,> 100 µM,–,> 100 µM,–,> 100 µM,–,> 100 µM,–,> 100 µM,–,> 100 µM,–,> 100 µM,–,> 100 µM
O=C(Nc1ccc(Br)cc1)Nc1nn(C(=O)Nc2ccc(Br)cc2)c2ccccc12,23.7 µM,> 100 µM,> 100 µM,> 100 µM,36.5 µM,> 100 µM,–,> 45.9 µM,51.5 µM,> 100 µM,8.26 µM,28.7 µM,96.9 µM,> 100 µM,55.6 µM,> 100 µM,44.2 µM,> 84 µM,18 µM,66.1 µM
COC(=O)[C@H]1[C@H]2C[C@@H]3c4[nH]c5cc(OC)ccc5c4CCN3C[C@H]2C[C@@H](OC(=O)/C=C/c2cc(OC)c(OC)c(OC)c2)[C@@H]1OC,5.73 µM,19.8 µM,24.2 µM,> 100 µM,14.5 µM,33.4 µM,11 µM,31.5 µM,8.89 µM,> 100 µM,5.19 µM,20.2 µM,12.6 µM,28 µM,4.55 µM,28.5 µM,3.97 µM,26.8 µM,5.54 µM,24.9 µM
Cc1cnc(Nc2ccc(OCCN3CCCC3)cc2)nc1Nc1cccc(S(=O)(=O)NC(C)(C)C)c1,0.17 µM and 0.759 µM,2.68 µM and > 10 µM,0.409 µM and 1.43 µM,4.43 µM and > 7.01 µM,0.491 µM and 1.92 µM,8.14 µM and > 10 µM,0.0955 µM and 0.518 µM,0.385 µM and 1.78 µM,0.335 µM and 1.36 µM,7.29 µM and 6 µM,0.0852 µM and 0.286 µM,0.686 µM and 1.76 µM,3.27 µM and > 7.8 µM,17.5 µM and > 10 µM,7.01 µM and > 7.11 µM,26.6 µM and > 10 µM,1.11 µM,–,0.304 µM and 2.57 µM,12.4 µM and > 10 µM
CCOC(=O)c1c2c(n(Cc3ccccc3)c1C)-c1nc(Cc3ccccc3)[nH]c1C(=O)C2=O,1.69 µM,4.13 µM,2.6 µM,4.09 µM,1.74 µM,3.55 µM,0.87 µM,2.34 µM,2.5 µM,7.15 µM,1.49 µM,2.81 µM,2 µM,3.42 µM,2.51 µM,5.28 µM,0.673 µM,2.18 µM,1.92 µM,4.14 µM
[N-]=[N+]=CC(=O)COC(=O)c1ccccc1,–,> 100 µM,–,> 100 µM,–,> 100 µM,–,> 100 µM,–,> 100 µM,–,> 100 µM,–,> 100 µM,–,> 100 µM,–,> 100 µM,–,> 100 µM
C[C@]12CC[C@H]3[C@@H](CC[C@]4(O)C[C@@H](O)CC[C@]34CO)[C@@]1(O)CC[C@@H]2C1=CC(=O)OC1,–,8.23 µM,–,67.9 µM,–,11.4 µM,–,1.58 µM,–,1.74 µM,–,34.3 µM,–,22.5 µM,–,3.8 µM,–,–,–,5.27 µM
Nc1nc(N)nc(CC(=O)O)n1,–,> 100 µM,–,–,–,> 100 µM,–,> 100 µM,–,> 100 µM,–,> 100 µM,–,> 100 µM,–,> 100 µM,–,> 100 µM,–,> 100 µM
COc1cc2c(c(OC)c1OC)-c1ccc(O)c(=O)cc1[C@@H](NC(C)=O)CC2,20 µM,> 100 µM,7.95 µM,> 100 µM and 34.4 µM,3.82 µM,18.1 µM and 30 µM,14.6 µM,> 100 µM,10.1 µM,89.3 µM and > 100 µM,16.3 µM,> 100 µM,7.48 µM,> 100 µM,4.6 µM,> 100 µM and 36.2 µM,4.91 µM,> 100 µM and 37.5 µM,5.45 µM,> 100 µM and 97.3 µM
CN(C)CCCc1c2ccccc2nc2ccc(Cl)cc12,–,34.8 µM,–,–,–,34.2 µM,–,28.8 µM,–,28.3 µM,–,31.8 µM,–,37.3 µM,–,52 µM,–,31.4 µM,–,30.9 µM
CCC[CH2][Sn]1([CH2]CCC)[O]C(=O)c2ccc(N)cc2[O]1,0.141 µM,0.913 µM,0.855 µM,2.48 µM,0.364 µM,1.83 µM,0.112 µM,0.427 µM,2.62 µM,7.4 µM,0.116 µM,1.84 µM,0.397 µM,1.48 µM,1.76 µM,4.12 µM,0.119 µM,1.27 µM,1.41 µM,2.76 µM
Oc1c(Cl)cc(Cl)cc1Sc1cc(Cl)cc(Cl)c1O,2.62 µM and 1.07 µM,5.4 µM and 2.91 µM,3.7 µM,14.7 µM,3.57 µM and 2.02 µM,14.1 µM and 5.44 µM,2.84 µM and 2.52 µM,8.76 µM and 7.65 µM,3.37 µM and 3.03 µM,11.9 µM and 10.6 µM,3.47 µM and 2.57 µM,14 µM and 7.61 µM,7.01 µM and 4 µM,21 µM and 14.5 µM,2.92 µM and 2.74 µM,13.1 µM and 9.29 µM,2.65 µM and 2.04 µM,9.13 µM and 5.93 µM,2.33 µM and 2.34 µM,6.47 µM and 6.51 µM
COc1ccc(/C=C\c2cc(OC)c(OC)c(OC)c2)c(NS(=O)(=O)c2ccc(Cl)cc2)c1O,0.0659 µM,21.3 µM,0.429 µM,16.4 µM,0.0635 µM,22.6 µM,0.0355 µM,10.7 µM,0.27 µM,> 100 µM,0.0331 µM,17.4 µM,0.084 µM,31.6 µM,0.263 µM,22.4 µM,0.0542 µM,28.7 µM,0.256 µM,12.2 µM
CCOC(=O)Nc1nc2cc(OCC)ccc2s1,16.3 µM,> 100 µM,> 41.3 µM,> 100 µM,58.3 µM,> 100 µM,> 100 µM,> 100 µM,9.83 µM,> 100 µM,53.8 µM,> 100 µM,> 100 µM,> 100 µM,6.02 µM,> 100 µM,> 75.4 µM,> 100 µM,> 100 µM,> 100 µM
C/C(=N\NC(=S)N1CCN(c2ccccn2)CC1)c1nccs1,–,9.9 µM,–,14.9 µM,–,0.834 µM,–,17.4 µM,–,13.3 µM,–,19.4 µM,–,19.9 µM,0.279 µM,2.56 µM,–,19.9 µM,–,20.7 µM
CCCCN(CCCC)CCc1c(C)cc(C)c(CCN(CCCC)CCCC)c1O,2.24 µM,5.78 µM,3.17 µM,32.6 µM,2.86 µM,29.7 µM,2.4 µM,7.23 µM,3 µM,> 100 µM,2.52 µM,40.3 µM,3.97 µM,> 100 µM,3.63 µM,88.1 µM,2.17 µM,7.35 µM,2.2 µM,6.97 µM
COC(=O)C(=O)C(C(=O)C(N)=O)c1nc2ccc(C(=O)c3ccccc3)cc2[nH]c1=O (stereo not given),–,> 100 µM,–,> 100 µM,–,> 100 µM,–,> 100 µM,–,> 100 µM,–,> 100 µM,–,> 100 µM,–,> 100 µM,–,> 100 µM,–,> 100 µM
CCCCCCNC(=O)Oc1ccc(/C(=C(/C)Cc2ccc(OC)cc2)c2ccc(OCCN(C)C)cc2)cc1,5.91 µM,11 µM,3.82 µM,8.43 µM,4.44 µM,8.72 µM,4.36 µM,9.23 µM,5.65 µM,10.8 µM,3.99 µM,8.53 µM,3.88 µM,8.06 µM,5.07 µM,10.7 µM,5.39 µM,9.95 µM,5.2 µM,9.82 µM
CC(=O)c1cccc(-c2cccc(-c3ccn(CCN4CCOCC4)n3)c2)c1,> 20 µM,> 20 µM,> 20 µM,> 20 µM,> 20 µM,> 20 µM,> 20 µM,> 20 µM,> 20 µM,> 20 µM,> 20 µM,> 20 µM,> 20 µM,> 20 µM,> 20 µM,> 20 µM,> 20 µM,> 20 µM,–,–
CCCCCCNC(=O)n1cc(F)c(=O)[nH]c1=O,12 µM,35.2 µM,0.287 µM,18.4 µM,2.8 µM,25 µM,6.22 µM,20.3 µM,0.738 µM,> 100 µM,7.51 µM,43 µM,3.96 µM,27.7 µM,12 µM,92.5 µM,1.64 µM,18.4 µM,–,–
